In patent publication US20230129359A1, “MUSCARINIC RECEPTOR 4 ANTAGONISTS AND METHODS OF USE” (Neurocrine Biosciences, Inc., priority 2020, published 2023):

These compounds were tested against T1, human M4 receptor (Homo sapiens, UniProt P08173) (assay: Radioligand ([3H]N-methylscopolamine) binding assay, membranes from CHO cells expressing human M4 receptor). Settings: Ki against human M4 receptor; membranes from CHO cells; tritiated N-methylscopolamine 1.5 nM; read-out: K.
T1 construct: expressed in transfected cells; host or cells: CHO cells
T1 sequence (P08173 1-479): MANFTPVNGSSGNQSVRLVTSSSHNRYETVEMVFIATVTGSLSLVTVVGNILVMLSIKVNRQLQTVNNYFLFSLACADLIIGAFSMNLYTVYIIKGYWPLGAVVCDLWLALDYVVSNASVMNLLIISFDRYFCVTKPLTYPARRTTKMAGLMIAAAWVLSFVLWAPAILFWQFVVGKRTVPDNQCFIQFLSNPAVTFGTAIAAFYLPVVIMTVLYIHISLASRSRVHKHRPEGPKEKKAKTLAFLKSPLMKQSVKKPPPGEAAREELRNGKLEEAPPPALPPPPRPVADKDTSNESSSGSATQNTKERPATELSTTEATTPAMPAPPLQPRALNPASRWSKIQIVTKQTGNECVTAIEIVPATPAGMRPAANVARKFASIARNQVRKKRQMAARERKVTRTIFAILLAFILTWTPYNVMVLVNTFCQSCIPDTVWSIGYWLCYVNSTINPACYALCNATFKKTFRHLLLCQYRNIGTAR
How it was run: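 Ki values derive from displacement of tritiated N-methylscopolamine (1.5 nM) from human M4 receptor in CHO membranes. Membranes, radioligand and twelve-point compound series were incubated together at 37 °C for 90 minutes in pH 7.4 HEPES/NaCl/MgCl2/EDTA buffer. Rapid vacuum filtration over polyethylenimine-pretreated filters was followed by radioactivity counting.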

| Compound | Ki [nM] |
| --- | --- |
| C[C@@H]1CN(c2cnc(C(F)(F)F)cn2)C[C@@H](C)N1C(=O)OC1(C)CC2(CN(Cc3ccccc3)C2)C1 [Compound 356, 2-benzyl-6-methyl-2-azaspiro[3.3]heptan-6-yl (2R,6R)-2,6-dimethyl-4-[5-(trifluoromethyl)pyrazin-2-yl]piperazine-1-carboxylate] | 10 to 100 |
| C[C@@H]1CN(c2ccc(F)c(C#N)c2)CCN1C(=O)NC1CC2(C1)CN(Cc1ccccc1)C2 [Compound 12, (2R)-N-{2-benzyl-2-azaspiro[3.3]heptan-6-yl}-4-(3-cyano-4-fluorophenyl)-2-methylpiperazine-1-carboxamide] | 10 to 100 |
| O=C(OC1CC2(C1)CN(Cc1ccccc1)C2)N1CCN(c2ccc(C(F)(F)F)cn2)CC1 [Compound 121, 2-benzyl-2-azaspiro[3.3]heptan-6-yl 4-[5-(trifluoromethyl)pyridin-2-yl]piperazine-1-carboxylate] | 100 to 1000 |
| C[C@@H]1CN(c2cnc(C(F)(F)F)cn2)C[C@H](C)N1C(=O)NC1CC2(C1)CN(Cc1ccc(F)cc1)C2 [Compound 267, (2R,6S)-N-{2-[(4-fluorophenyl)methyl]-2-azaspiro[3.3]heptan-6-yl}-2,6-dimethyl-4-[5-(trifluoromethyl)pyrazin-2-yl]piperazine-1-carboxamide] | 10 to 100 |
| COc1ccc(N2C[C@@H](C)N(C(=O)OC3CC4(C3)CN(Cc3ccccc3)C4)[C@@H](C)C2)cc1 [Compound 524, 2-benzyl-2-azaspiro[3.3]heptan-6-yl (2R,6S)-4-(4-methoxyphenyl)-2,6-dimethylpiperazine-1-carboxylate] | 100 to 1000 |
| C[C@@H]1CN(c2nc3cc(C(F)(F)F)cnc3s2)C[C@@H](C)N1C(=O)OC1CC2(C1)CN(Cc1ccccc1)C2 [Compound 366, 2-benzyl-2-azaspiro[3.3]heptan-6-yl (2R,6R)-2,6-dimethyl-4-[6-(trifluoromethyl)-[1,3]thiazolo[5,4-b]pyridin-2-yl]piperazine-1-carboxylate] | 10 to 100 |
| C[C@@H]1CN(c2ncc(F)cn2)C[C@@H](C)N1C(=O)OC1CC2(C1)CN(Cc1ccccc1)C2 [Compound 158, 2-benzyl-2-azaspiro[3.3]heptan-6-yl (2R,6R)-4-(5-fluoropyrimidin 2-yl)-2,6-dimethylpiperazine-1-carboxylate] | 100 to 1000 |
| C[C@@H]1CN(c2ncc(OC(F)F)cn2)C[C@H](C)N1C(=O)OC1CC2(C1)CN(Cc1ccccc1)C2 [Compound 462, 2-benzyl-2-azaspiro[3.3]heptan-6-yl (2R,6S)-4-[5-(difluoromethoxy)pyrimidin-2-yl]-2,6-dimethylpiperazine-1-carboxylate] | < 10 |
| Cc1nc(N2C[C@@H](C)N(C(=O)OC3CC4(C3)CN(Cc3ccccc3)C4)[C@@H](C)C2)ncc1Cl [Compound 279, 2-benzyl-2-azaspiro[3.3]heptan-6-yl (2R,6S)-4-(5-chloro-4-methylpyrimidin-2-yl)-2,6-dimethylpiperazine-1-carboxylate] | 10 to 100 |
| C[C@@H]1CN(c2cnc(OC(F)(F)F)cn2)[C@@H](C)CN1C(=O)OC1CC2(C1)CN(Cc1ccccc1)C2 [Compound 204, 2-benzyl-2-azaspiro[3.3]heptan-6-yl (2R,5S)-2,5-dimethyl-4-[5-(tifluoromethoxy)pyrazin-2-yl]piperazine-1-carboxylate] | < 10 |
| O=C(OC1CC2(C1)CN(Cc1ccccc1)C2)N1CC2COCC(C1)N2c1ncc(C(F)(F)F)cn1 [Compound 495, 2-benzyl-2-azaspiro[3.3]heptan-6-yl 9-[5-(trifluoromethyl)pyrimidin-2-yl]-3-oxa-7,9-diazabicyclo[3.3.1]hnonane-7-carboxylate] | 10 to 100 |
| C[C@@H]1CN(c2ncc(Cl)cn2)C[C@H](C)N1C(=O)OC1CC2(C1)CN(Cc1ccccc1)C2 [Compound 278, 2-benzyl-2-azaspiro[3.3]heptan-6-yl (2R,6S)-4-(5-chloropyrimidin-2-yl)-2,6-dimethylpiperazine-1-carboxylate] | 10 to 100 |

Second part, the compound after the results:

| Ki [nM] | Compound |
| --- | --- |
| < 10 | C[C@@H]1CN(c2ccc(C(F)(F)F)cc2)[C@@H](C)CN1C(=O)OC1CC2(C1)CN(Cc1ccccc1)C2 [Compound 527, 2-benzyl-2-azaspiro[3.3]heptan-6-yl (2R,5S)-2,5-dimethyl-4-[4-(trifluoromethyl)phenyl]pipera-zine-1-carboxylate] |
| 100 to 1000 | C[C@@H]1CN(c2ncc(F)cn2)C[C@H](C)N1C(=O)NC1CC2(C1)CN(Cc1ccccc1)C2 [Compound 250, (2R,6S)-N-{2-benzyl-2-azaspiro[3.3]heptan-6-yl}-4-(5-fluoropyrimidin-2-yl)-2,6-dimethylpiperazine-1-carboxamide] |
| 10 to 100 | C[C@@H]1CN(c2ncc(C(F)(F)F)cn2)C[C@H](C)N1C(=O)NC1CC2(C1)CN(Cc1ccc([N+](=O)[O-])cc1)C2 [Compound 314, (2R,6S)-2,6-dimethyl-N-{2-[(4-nitrophenyl)methyl]-2-azaspiro[3.3]heptan-6-yl}-4-[5-(trifluoromethyl)pyrimidin-2-yl]piperazine-1-carboxamide] |
| < 10 | C[C@@H]1CN(c2ncc(C(F)(F)F)cn2)C[C@@H](C)N1C(=O)OC1CC2(C1)CN(Cc1ccccc1)C2 [Compound 139, 2-Benzyl-2-azaspiro[3.3]heptan-6-yl (2R,6R)-2,6-dimethyl-4-[5-(trifluoromethyl)pyrimidin-2-yl]piperazine-1-carboxylate] |
| 10 to 100 | C[C@@H]1CN(c2cnc(C(F)(F)F)cn2)CCN1C(=O)NC1CC2(C1)CN(Cc1ccc(Cl)cc1)C2 [Compound 261, (2R)-N-{2-[(4-chlorophenyl)methyl]-2-azaspiro[3.3]heptan-6-yl}-2-methyl-4-[5-(trifluoromethyl)pyrazin-2-yl]piperazine-1-carboxamide] |
| < 10 | C[C@@H]1CN(c2ncc(OCC3CCC3)cn2)C[C@H](C)N1C(=O)OC1CC2(C1)CN(Cc1ccccc1)C2 [Compound 530, 2-benzyl-2-azaspiro[3.3]heptan-6-yl (2R,6S)-4-[5-(cyclobutylmethoxy)pyrimidin-2-yl]-2,6-dimethylpiperazine-1-carboxylate] |
| 10 to 100 | Cc1cc(N2C[C@@H](C)N(C(=O)OC3CC4(C3)CN(Cc3ccccc3)C4)[C@@H](C)C2)ccc1F [Compound 525, 2-benzyl-2-azaspiro[3.3]heptan-6-yl (2R,6S)-4-(4-fluoro-3-methylphenyl)-2,6-dimethylpiperazine-1-carboxylate] |
| 10 to 100 | C[C@@H]1CN(c2ncc3ccccc3n2)CCN1C(=O)NC1CC2(C1)CN(Cc1ccccc1)C2 [Compound 213, (2R)-N-{2-benzyl-2-azaspiro[3.3]heptan-6-yl}-2-methyl-4-(quinazolin-2-yl)piperazine-1-carboxamide] |
| 100 to 1000 | C[C@@H]1CN(c2ncc(C(F)(F)F)cn2)CCN1C(=O)NC1CC2(C1)CN(Cc1ccc(F)cc1)C2 [Compound 266, (2R)-N-{2-[(4-fluorophenyl)methyl]-2-azaspiro[3.3]heptan-6-yl}-2-methyl-4-[5-(trifluoromethyl)pyrimidin-2-yl]piperazine-1-carboxamide] |
| < 10 | C[C@@H]1CN(c2nc3ccc(F)cc3s2)[C@@H](C)CN1C(=O)OC1CC2(C1)CN(Cc1ccccc1)C2 [Compound 370, 2-benzyl-2-azaspiro[3.3]heptan-6-yl (2R,5S)-4-(6-fluoro-1,3-benzothiazol-2-yl)-2,5-dimethylpiperazine-1-carboxylate] |
| 10 to 100 | COc1ccc2nc(N3C[C@@H](C)N(C(=O)OC4CC5(C4)CN(Cc4ccc(F)cc4)C5)C[C@@H]3C)cnc2c1 [Compound 396, 2-[(4-fluorophenyl)methyl]-2-azaspiro[3.3]heptan-6-yl (2R,5S)-4-(6-methoxyquinoxalin-2-yl)-2,5-dimethylpiperazine-1-carboxylate] |
| 10 to 100 | COc1ccc2nc(N3C[C@@H](C)N(C(=O)NC4CC5(C4)CN(Cc4ccccc4)C5)[C@@H](C)C3)cnc2c1 [Compound 215, (2R,6S)-N-{2-benzyl-2-azaspiro[3.3]heptan-6-yl}-4-(6-methoxyquinoxalin-2-yl)-2,6-dimethylpiperazine-1-carboxamide] |
| 100 to 1000 | C[C@@H]1CN(c2ncc(C#N)cn2)C[C@@H](C)N1C(=O)OC1CC2(C1)CN(Cc1ccccc1)C2 [Compound 159, 2-benzyl-2-azaspiro[3.3]heptan-6-yl (2R,6R)-4-(5-cyanopyrimidin-2-yl)-2,6-dimethylpiperazine-1-carboxylate] |
| 10 to 100 | C#Cc1cnc(N2C[C@@H](C)N(C(=O)OC3CC4(C3)CN(Cc3ccccc3)C4)[C@@H](C)C2)nc1 [Compound 508, 2-benzyl-2-azaspiro[3.3]heptan-6-yl (2R,6S)-4-(5-ethynylpyrimidin-2-yl)-2,6-dimethylpiperazine-1-carboxylate] |
| < 10 | C[C@@H]1CN(c2nc3ccccc3s2)[C@@H](C)CN1C(=O)NC1CC2(C1)CN(Cc1ccccc1)C2 [Compound 244, (2R,5S)-4-(1,3-benzothiazol-2-yl)-N-{2-benzyl-2-azaspiro[3.3]heptan-6-yl}-2,5-dimethylpiperazine-1-carboxamide] |
| 10 to 100 | C[C@@H]1CN(c2cnc(C(F)(F)F)cn2)[C@@H](C)CN1C(=O)OC1CC2(C1)CN(Cc1ccc(Cl)cc1)C2 [Compound 480, 2-[(4-chlorophenyl)methyl]-2-azaspiro[3.3]heptan-6-yl (2R,5S)-2,5-dimethyl-4-[5-(trifluoromethyl)pyrazin-2-yl]piperazine-1-carboxylate] |
